Reference: patent US20160038468A1 (priority 2013, published 2016)
Like-named read-outs stand apart in the source and are kept apart here.

Tests used:
Assay type in all cases: cell-based
Peptoniphilus harei = experiment: Agar dilution MIC (CLSI), Peptoniphilus harei vaginal isolates; details: for MIC: read-out: Minimal Inhibitory Concentration (MIC)
Peptoniphilus lacrimalis = experiment: Agar dilution MIC (CLSI), Peptoniphilus lacrimalis vaginal isolates; details: for Number of strains with indicated MIC: 20 samples; for MIC: read-out: Minimal Inhibitory Concentration (MIC)
[1] = test system: Megasphaera-like bacteria; experiment: Agar dilution MIC (CLSI), Megasphaera-like bacteria vaginal isolates; details: for MIC: read-out: Minimal Inhibitory Concentration (MIC); for Number of strains with indicated MIC: 25 samples
[2] = Peptoniphilus harei, # tested 23
[3] = Peptoniphilus lacrimalis, # tested 20

CCC[C@@H]1C[C@@H](C(=O)N[C@@H]([C@H]2O[C@H](SC)[C@H](O)[C@@H](O)[C@H]2O)[C@H](C)Cl)N(C)C1 [Clindamycin]
0.06 mg/L: MIC (Peptoniphilus lacrimalis; Peptoniphilus lacrimalis, isolate 601105V 13)
0.03 mg/L: MIC ([1]; 427510 h, isolate 427507 H) | MIC50 ([1]; # tested 25) | MIC90 ([1]; # tested 25) | MIC ([1]; isolate 426749 T) | MIC ([1]; isolate 426766 Q) | MIC ([1]; isolate 426788 8a) | MIC ([1]; isolate 426788 C) | MIC ([1]; isolate 427470 10) | MIC ([1]; isolate 427490 2u) | MIC ([1]; isolate 427522 8) | MIC ([1]; isolate 600770 O) | MIC ([1]; isolate 600790 N) | MIC ([1]; isolate 600796 V) | MIC ([1]; isolate 600831 9) | MIC ([1]; isolate 600837 18) | MIC ([1]; isolate 600861 P) | MIC ([1]; isolate 602236 E3) | MIC ([1]; isolate 602241 D) | MIC ([1]; isolate 602241 F) | MIC ([1]; isolate 602270 A) | MIC ([1]; isolate 602282 I) | MIC ([1]; isolate 602288 16) | MIC ([1]; isolate 602302 22) | MIC ([1]; isolate 602305 I) | MIC ([1]; isolate 602324 8) | MIC ([1]; isolate 602672 12A)
0.03 to 0.125 mg/L: MIC Range ([1]; # tested 25)
0.5 mg/L: MIC (Peptoniphilus harei; Peptoniphilus harei, isolate 601248V 23) | MIC (Peptoniphilus harei; Peptoniphilus harei, isolate 601302V F1) | MIC (Peptoniphilus harei; Peptoniphilus harei, isolate 601374V F) | MIC (Peptoniphilus harei; Peptoniphilus harei, isolate 601388V Q) | MIC50 (Peptoniphilus harei; [2])
8 mg/L: MIC (Peptoniphilus lacrimalis; Peptoniphilus lacrimalis, isolate 601318V E)
0.125 mg/L: MIC (Peptoniphilus harei; Peptoniphilus harei, isolate 601311V R) | MIC (Peptoniphilus harei; Peptoniphilus harei, isolate 601342V F) | MIC (Peptoniphilus harei; Peptoniphilus harei, isolate 601365V 14) | MIC (Peptoniphilus harei; Peptoniphilus harei, isolate 601426V D) | MIC (Peptoniphilus harei; Peptoniphilus harei, isolate 601430V 22) | MIC (Peptoniphilus lacrimalis; Peptoniphilus lacrimalis, isolate 601060V 32A) | MIC (Peptoniphilus lacrimalis; Peptoniphilus lacrimalis, isolate 601078V O) | MIC (Peptoniphilus lacrimalis; Peptoniphilus lacrimalis, isolate 601084V c) | MIC (Peptoniphilus lacrimalis; Peptoniphilus lacrimalis, isolate 601365V 13) | MIC ([1]; isolate 427509 A)
>128 mg/L: Minimal Inhibitory Concentration (MIC) (Peptoniphilus harei; isolate 426868V D) | Minimal Inhibitory Concentration (MIC) (Peptoniphilus lacrimalis; isolate 601261V O) | Minimal Inhibitory Concentration (MIC) (Peptoniphilus lacrimalis; isolate 601296V N)
0.25 mg/L: MIC (Peptoniphilus harei; Peptoniphilus harei, isolate 601203V 8) | MIC (Peptoniphilus harei; Peptoniphilus harei, isolate 601293V 21) | MIC (Peptoniphilus harei; Peptoniphilus harei, isolate 601355V D) | MIC (Peptoniphilus harei; Peptoniphilus harei, isolate 601399V 16) | MIC (Peptoniphilus harei; Peptoniphilus harei, isolate 601409V L) | MIC (Peptoniphilus harei; Peptoniphilus harei, isolate 601413V 16) | MIC (Peptoniphilus harei; Peptoniphilus harei, isolate 601539V 25B) | MIC (Peptoniphilus lacrimalis; Peptoniphilus lacrimalis, isolate 601255V 12) | MIC (Peptoniphilus lacrimalis; Peptoniphilus lacrimalis, isolate 601293V 15) | MIC (Peptoniphilus lacrimalis; Peptoniphilus lacrimalis, isolate 601305V K-1) | MIC (Peptoniphilus lacrimalis; Peptoniphilus lacrimalis, isolate 601330V H) | MIC (Peptoniphilus lacrimalis; Peptoniphilus lacrimalis, isolate 601336V 47) | MIC (Peptoniphilus lacrimalis; Peptoniphilus lacrimalis, isolate 601368V 39) | MIC (Peptoniphilus lacrimalis; Peptoniphilus lacrimalis, isolate 601375V E) | MIC (Peptoniphilus lacrimalis; Peptoniphilus lacrimalis, isolate 601388V B) | MIC (Peptoniphilus lacrimalis; Peptoniphilus lacrimalis, isolate 601401V I) | MIC50 (Peptoniphilus lacrimalis; [3])
21 (91) μg/ml: Susceptible (Peptoniphilus harei; number (%) of isolates, # tested 23)
3: Number of strains with indicated MIC (Peptoniphilus lacrimalis; MIC >[…])
2: Number of strains with indicated MIC (Peptoniphilus harei; MIC >[…], 23 samples)
2 (9) μg/ml: Resistant (Peptoniphilus harei; number (%) of isolates, # tested 23, resistance: rifaximin >32, metronidazole >32, clindamycin >8 μg/ml)
1 mg/L: MIC (Peptoniphilus harei; Peptoniphilus harei, isolate 601098V Q) | MIC (Peptoniphilus harei; Peptoniphilus harei, isolate 601212V 15) | MIC (Peptoniphilus harei; Peptoniphilus harei, isolate 601259V 11) | MIC (Peptoniphilus harei; Peptoniphilus harei, isolate 601289V C) | MIC (Peptoniphilus harei; Peptoniphilus harei, isolate 601326V F) | MIC90 (Peptoniphilus harei; [2])
6 (30) μg/ml: Resistant (Peptoniphilus lacrimalis; number (%) of isolates, # tested 20, resistance: rifaximin >32, metronidazole >32, clindamycin >8 μg/ml)
24: Number of strains with indicated MIC ([1]; MIC 0.03 μg/ml)
14 (70) μg/ml: Susceptible (Peptoniphilus lacrimalis; number (%) of isolates, # tested 20)
1: Number of strains with indicated MIC (Peptoniphilus lacrimalis; MIC 0.06 μg/ml) | Number of strains with indicated MIC (Peptoniphilus lacrimalis; MIC 8 μg/ml) | Number of strains with indicated MIC ([1]; MIC […])
128 mg/L: MIC (Peptoniphilus lacrimalis; Peptoniphilus lacrimalis, isolate 601028V 27A) | MIC (Peptoniphilus lacrimalis; Peptoniphilus lacrimalis, isolate 601139V 17)
> 128 mg/L: MIC (Peptoniphilus harei; Peptoniphilus harei) | MIC (Peptoniphilus lacrimalis; Peptoniphilus lacrimalis) | MIC90 (Peptoniphilus lacrimalis; [3])
